# Measurements reported in patent publication US20080103209A1, “Compounds And Methods For Treating Non-Inflammatory Pain Using Ppar Alpha Agonists” (The Regents of The University of California, priority 2004, published 2008).
# Experiments:
# [1] = test system: mice; assay: Formalin-evoked pain behavior (hind paw licking); type: in vivo, mouse; conditions: for effect of CB2 antagonist on antinociceptive effect of GW7647: GW7647 50 μg i.pl.; for effect of CB2 antagonist on antinociceptive effect of GW7647 / effect of CB2 antagonist on antinociceptive effect of PEA: AM630 2 mg-kg^−1 i.p.; for effect of CB2 antagonist on antinociceptive effect of PEA: PEA 50 μg i.pl.; for phase I and II formalin pain in wild-type mice: wild-type C57BL6 mice
# Procedure: Administration of formalin into the mouse hind paw evokes a pain behavior consisting of two temporally distinct phases of licking and flexing of the injected limb (Dubuisson, et al., Pain 4, 161-74 (1977)). The first phase, which starts immediately after formalin injection and lasts 5-10 min, is due to activation of nociceptive fibers and is accompanied by the local release of nitric oxide and adenosine [Dickenson, et al., Neurosci Lett 83, 207-11 (1987); Omote, et al., Brain Res 787, 161-4 (1998); Omote et al., 2000; Liu, et al., J Neurochem 80, 562-70 (2002)]. Following a quiescent interval of 10-15 minutes, a second phase of nociceptive behavior appears, which is associated with local inflammation [Rosland, et al., Pain 42, 235-42 (1990)] and central sensitization [Coderre, et al., J Neurosci 12, 3665-70 (1992)]. […] (2001); Farquuar-Smith, 2002]. […] The effects of PEA in C57BL/6J mice in which the PPARα gene had been deleted by homologous recombination (PPARα^−/−)[Lee, et al., Mol Cell Biol 15, 3012-22 (1995)] were examined to determine whether PPARα contributes to these properties.
# Although PPARα is known to regulate the inflammatory response [Devchand, et al., Nature 384, 39-43. (1996); Cabrero, et al., Curr Drug Targets Inflamm Allergy 1, 243-8 (2002); Berger, et al., Annu Rev Med 53, 409-35 (2002); Chinetti, et al., Inflamm Res 49, 497-505 (2000)], its roles in the modulation of acute nociceptive pain remain unexplored. A series of structurally diverse PPAR-α agonists were tested for their ability to reduce pain behavior in an animal model of chemical tissue damage. Injection of formalin into the mouse hind paw evokes a nocifensive behavior consisting of two distinct phases. The first phase results from direct activation of nociceptive fibers and starts immediately after formalin administration, while the second phase develops over a period of approximately 60 min and is associated with local inflammation and central sensitization.
# Mice received intraplantar injections of formalin (5% vol/vol, 10 μl) in saline containing polyethylene glycol (5%) and Tween 80 (5%). The duration of paw licking was monitored by an observer for periods of 0-15 min (early or first phase) and 15-45 min (late or second phase) immediately after formalin administration.
# Formalin test. Formalin (5%, 10 μl)-induced paw licking was monitored for 0-15 min (first phase) and 15-45 min (second phase) as described (Calignano, et al., Nature 394, 277-81 (1998).
# [2] = test system: mice; assay: Magnesium sulfate-evoked writhing test; type: in vivo, mouse; conditions: subcutaneous, Swiss mice
# Procedure: Mice received a single dose of magnesium sulfate (120 mg/kg, dissolved in 0.5 ml saline, i.p.) and subsequent writhing episodes were monitored for a period of 30 min thereafter. Drugs were administered in saline/Tween 80/polyethylenglycol, (90/5/5) subcutaneously, 30 minutes before magnesium sulfate.
# Next, the effect of PPARα agonists on the nocifensive behavior elicited by intraperitoneal injection of magnesium sulfate in mice, a model of visceral pain (Calignano, et al, Eur J Pharmacol 419, 191-8. (2001)), was explored.
# Writhing test. Magnesium sulfate was injected (120 mg-kg^−1 in 0.5 ml saline, i.p.) in 12-h food-deprived mice and measured writhing episodes for 30 min (Calignano, et al, Eur J Pharmacol 419, 191-8. (2001)). Drugs or vehicle were administered by subcutaneous injection 30 min before magnesium sulfate.
# [3] = test system: mice; assay: Carrageenan-evoked paw edema (acute); type: in vivo, mouse; conditions: wild-type C57Bl6J; PEA 10 mg-kg^−1 i.p., WY-14643 20 mg-kg^−1 i.p.
# From the text: (§1) In addition to rapid-onset analgesia, PEA also exerts prolonged anti-inflammatory effects [Benvenuti, et al., Boll Soc It Biol Sper 44, 809-813 (1968); Lambert, et al., Curr Med. Chem. 9, 663-74 (2002)], which are associated with the down-regulation of pro-inflammatory proteins such as nitric oxide synthase (NOS) [Costa, et al., Br J Pharmacol 137, 413-20. (2002)]. Two models of acute inflammation were used to examine whether such effects are mediated through PPARα. First, paw edema was induced in C57B16J wild-type and PPARα^−/− mice by local injection of the irritant, carrageenan [Cirino, et al., Eur J Pharmacol 166, 505-10 (1989)]. […] Next, ear edema was produced in CD1 mice by topical administration of the phorbol ester, 12-O-tetradecanoylphorbol-13-acetate (TPA) [Sheu, et al., J Invest Dermatol., 94-101. (2002)]. […] In a parallel set of experiments, the effects of PEA (20 μg) on TPA-induced edema were tested in C57B16J wild-type and PPARα^−/− mice. […] Together, these findings indicate that PEA reduces acute nociception and inflammation through activation of PPARα.
# An inflammatory response was initiated by injecting 2% (w v^−1, 20 μl) λ-carrageenan in sterile saline into mice hind paws using a 27-gauge needle. Drugs were administered 30 minutes before carrageenan (i.p.). Paw edema was measured using a plethysmometer (Ugo Basile, Italy).
# [4] = test system: mice; assay: TPA-induced ear edema (irritant contact dermatitis); type: in vivo, mouse; conditions: topical co-application, CD1 mice
# From the text: as §1
# As previous described procedure [Sheu, et al., J Invest Dermatol., 94-101. (2002)], 12-O-tetradecanoylphorbol-13-acetate (TPA) was dissolved in acetone (0.03%, w v^−1) and topically delivered with a pipette to the inner and outer surfaces (10 μl/side) of mice ears. Experimental agents were dissolved in acetone and delivered topically (20 μl/side) 45 minutes and 4 hours after TPA. 18 hours after TPA administration, the mice were euthanized with CO2 and the ears punched (diameter=2 mm) four times. The 4 excised punches of skin were combined and weighed to assess edema.
# [5] = target: T1, human CB2 (Homo sapiens, UniProt P34972); assay: CB2 receptor binding, [3H]-WIN-55212-2 displacement in CB2-overexpressing CHO cell membranes
# T1 construct: purchased Perkin-Elmer, Boston, Mass; host or cells: CHO cells (membranes)
# T1 sequence (P34972 whole entry): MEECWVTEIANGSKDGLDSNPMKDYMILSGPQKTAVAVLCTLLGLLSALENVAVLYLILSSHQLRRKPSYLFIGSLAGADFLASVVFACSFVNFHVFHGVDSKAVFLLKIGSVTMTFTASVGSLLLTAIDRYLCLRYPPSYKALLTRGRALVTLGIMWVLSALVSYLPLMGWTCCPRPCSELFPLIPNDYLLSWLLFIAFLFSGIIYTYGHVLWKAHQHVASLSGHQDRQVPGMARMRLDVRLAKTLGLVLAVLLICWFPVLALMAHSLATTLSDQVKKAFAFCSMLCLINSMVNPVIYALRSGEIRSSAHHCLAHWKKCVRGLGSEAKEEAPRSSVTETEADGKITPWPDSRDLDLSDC
# [6] = test system: Swiss mice; assay: Sciatic nerve ligation neuropathy, mechanical and thermal hyperalgesia; type: in vivo, mouse
# Procedure: To examine whether PPARα agonists modulate the persistent pain hypersensitivity associated with nerve injury, peripheral neuropathy was produced in mice by partially ligating the left sciatic nerve, a surgical procedure that results in the development of mechanical and thermal hyperalgesia in the operated limb (Bennett et al., Pain, 33, 87 (1988)).
# Sciatic nerve ligation was performed essentially following the method of Bennett and Xie (Bennett et al., Pain 33, 87 (1988)). Briefly, male Swiss mice were anesthetized with sodium pentobarbital, the left sciatic nerve was exposed at mid-thigh level through a small incision and one-third to one-half of the nerve thickness was tightly ligated with a silk thread. The wound was closed with a single muscle suture and skin clips, and dusted with streptomycin powder. In sham-operated animals, the nerve was exposed but not ligated.
# Mechanical hyperalgesia was determined by measuring paw withdrawal thresholds to an increasing pressure onto the dorsal surface of the paw using an analgesimeter (Ugo Basile, Italy) with a cut-off of 250 g. Withdrawal thresholds were measured on both the ipsilateral paw (inflamed or ligated) and contralateral paw (uninflamed or unligated) 60 min after subcutaneous drug administration.
# Thermal hyperalgesia was assessed by the methods of Hargreaves (Hargreaves et al., Pain, 32, 77 (1988)) by measuring the latency to withdraw the hind paws from a focussed beam of radiant heat applied to the plantar surface, using an appropriate apparatus (Ugo Basile, Italy). The cut-off time was set at 30 sec. The mice were habituated to the apparatus for 10-15 min two days prior to the experiment.
# [7] = target: T2, human PPARα (Homo sapiens, UniProt Q07869); assay: PPARα transactivation assay (HeLa cells, luciferase reporter); type: cell-based
# T2 construct: expressed in transfected cells
# T2 sequence (Q07869 239-466 limits assumed): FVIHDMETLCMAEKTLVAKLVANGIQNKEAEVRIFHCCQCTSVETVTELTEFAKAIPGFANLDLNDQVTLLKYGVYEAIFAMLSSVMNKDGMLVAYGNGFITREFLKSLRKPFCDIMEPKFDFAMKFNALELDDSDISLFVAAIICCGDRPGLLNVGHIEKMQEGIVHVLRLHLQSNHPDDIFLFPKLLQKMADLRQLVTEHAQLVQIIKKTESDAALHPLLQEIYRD
# Procedure: Transactivation assays were performed as previously described [Fu et al., Nature 425:90-93 (2003)].
# PPAR-α transactivation. Plasmids were generated which contained the ligand-binding domain of human PPAR-α (nucleotides 499-1,407) fused to the DNA-binding domain of yeast GAL4 under control of the human cytomegalovirus promoter and to a neomycin resistance gene to provide stable selection with 0.2 mg-ml-1 G418 (Calbiochem). We cultured HeLa cells in Dulbecco's-modified Eagles's medium (DMEM) supplemented with fetal bovine serum (10%), transfected them with Fugene 6 ([…], Roche) containing the pFR-luc plasmid ([…], Stratagene) and, 18 h later, replaced the media with DMEM containing hygromycin (0.1 mg ml−1, Calbiochem). […] Cells were maintained in DMEM containing hygromycin and G418. For transactivation assays, we seeded cells in 6-well plates and incubated them for 7 h in DMEM containing hygromycin and G418, plus appropriate concentrations of test compounds. We used a dual-luciferase reporter assay system (Promega) and an MLX Microtiter® plate luminometer (Dynex) to determine luciferase activity in cell lysates.
# [8] = formalin, Swiss mice, SR144528 1 mg-kg^−1
molecule,measurement,setting,value
CCCCC/C=C\C/C=C\C/C=C\C/C=C\CCCC(=O)N[C@H](C)CO [(R)-methanandamide],formalin pain in PPARα−/− mice,"[1]; PPARα−/− mice, 50 μg i.pl.",reversed
COc1ccc(C(=O)c2c(C)n(CCN3CCOCC3)c3cc(I)ccc23)cc1 [AM630],effect of CB2 antagonist on antinociceptive effect of GW7647,[1]; [8],did not affect
same,effect of CB2 antagonist on antinociceptive effect of PEA,[1]; [8],did not affect
Cc1cc(SCc2sc(-c3ccc(C(F)(F)F)cc3)nc2C)ccc1OCC(=O)O [GW501516],phase I and II formalin pain in wild-type mice,[1]; 50 μg i.pl.,inactive
Cc1c(C(=O)NN2CCCCC2)nn(-c2ccc(Cl)cc2Cl)c1-c1ccc(Cl)cc1 [SR141716],effect on antinociception by anandamide plus PEA or GW7647,"[1]; SR141716 0.1 mg kg^−1 i.v., 10 min before formalin, agonists 0.1 μg/paw each",prevents
"Cc1cccc(Nc2cc(Cl)nc(SCC(=O)O)n2)c1C [Wy-14643, [4-chloro-6-(2,3-xylidino)-2-pyrimidinylthio]acetic acid]",first- and second-phase nociception,"[1]; Swiss mice, i.pl. together with formalin, GW7647 0.1-50 μg, Wy-14643 50-200 μg, fenofibric acid 100-400 μg",attenuated first- and second-phase nociception in a dose-dependent manner
same,average half-maximal effective dose (ED50) to reduce first-phase pain,"[1]; intraplantar with formalin, Swiss mice, ten experiments",97.0 µg
same,"average ED50, magnesium sulfate-evoked writhing",[2]; n=8,25 mg/kg
same,number of writhing episodes evoked by magnesium sulfate,"[2]; GW7647 1-30, Wy-14643 4-80, PEA 1-20 mg-kg^−1",dose-dependently decreased the number of writhing episodes
same,carrageenan paw edema in wild-type mice,[3],decreased edema
same,TPA-induced ear edema formation,[4],attenuated
same,[^3H]-WIN-55212-2 Binding (% of control),[5]; Concentration 1 μM,104.2 ± 3.6 % of control
same,[^3H]-WIN-55212-2 Binding (% of control),[5]; Concentration 10 μM,105.6 ± 1.5 % of control
CC1(COc2ccc(CC3SC(=O)NC3=O)cc2)CCCCC1 (stereo not drawn) [ciglitazone],phase I and II formalin pain in wild-type mice,[1]; 50 μg i.pl.,inactive
NCC1(CC(=O)O)CCCCC1 [gabapentin],mechanical and thermal pain thresholds in the non-ligated paw of neuropathic mice,[6]; data not shown,did not affect
same,"neuropathic hypersensitivity (mechanical and thermal pain thresholds), ligated limb","[6]; single s.c. dose day 7 and 14 after surgery, 60 min before test, PEA, GW7647 30 mg-kg^−1, gabapentin 60 mg-kg^−1",comparable in magnitude
CCCCCCCCCCCCCCCC(=O)O [palmitic acid],PPARα activation,"[7]; HeLa cells, identical conditions",no effect
SR144528,effect of CB2 antagonist on antinociceptive effect of GW7647,[1]; [8],reverse
same,effect of CB2 antagonist on antinociceptive effect of PEA,[1]; [8],blocked
same,effect of CB2 antagonist on antinociceptive effect of Wy-14643,"[1]; formalin, Swiss mice, Wy-14643 100 μg i.pl., SR144528 1 mg-kg^−1",reverse
same,antagonism of PEA-induced PPARα activation in vitro,"[7]; PEA 10 μM, SR144528 0-5 μM",did not significantly antagonize
